Laboratory results as given in patent publication US8426447B2, “Spiro-tricyclic ring compounds as beta-secretase modulators and methods of use” (Amgen Inc., priority 2008, dated 2013).

Key:
BACE1 [1] = molecular target: T1, BACE1 (Homo sapiens, UniProt P56817); test: In Vitro Enzymatic BACE FRET (Fluorescence Resonance Energy Transfer) Assay; format: biochemical; settings: Table IV, class symbols; read-out: BACE1 FRET assay
Summary of the method: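 First, compound and enzyme sit in 0.05 M acetate (pH 4.2, 10% DMSO final, 100 uM nonionic genapol). Next, 50 nM quenched FRET peptide starts the reaction for one hour. Last, Tris neutralises the mixture before fluorescence is measured.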

BACE1 [2] = molecular target: T1, BACE1; test: In Vitro BACE Cell-based Assay (HEK cell assay): Aβ40 in conditioned medium of cells stably expressing Amyloid Precursor Protein, sandwich ELISA; settings: Table IV, class symbols; read-out: HEK cell assay
Summary of the method: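 Conditioned medium Aβ40 by ELISA: pAb40 capture 3 h 4° C., biotin-6E10 detection 2 h 4° C., Streptavidin-Europium TRF. IC50 fitted from % control.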

T1 sequence (P56817 46-501, species assumed): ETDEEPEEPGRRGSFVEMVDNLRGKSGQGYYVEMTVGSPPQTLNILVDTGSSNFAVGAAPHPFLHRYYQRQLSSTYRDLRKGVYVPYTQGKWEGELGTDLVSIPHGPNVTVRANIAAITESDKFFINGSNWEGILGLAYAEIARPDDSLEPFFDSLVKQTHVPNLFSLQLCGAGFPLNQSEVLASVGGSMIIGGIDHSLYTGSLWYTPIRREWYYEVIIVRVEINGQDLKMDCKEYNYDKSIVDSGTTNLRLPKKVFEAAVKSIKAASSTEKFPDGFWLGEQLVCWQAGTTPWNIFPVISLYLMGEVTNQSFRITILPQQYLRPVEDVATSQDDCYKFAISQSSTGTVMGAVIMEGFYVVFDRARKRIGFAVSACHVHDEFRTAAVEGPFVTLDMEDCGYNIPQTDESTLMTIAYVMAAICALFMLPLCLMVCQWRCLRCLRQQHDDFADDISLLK

SMILES | IC50 (BACE1 [1]) [nM] | IC50 (BACE1 [2]) [nM]
CC(C)(C)COc1ccc2c(c1)[C@]1(COC(N)=N1)c1cc(CO)ccc1O2 [compound 828] | 1000 to 5000 | 1000 to 5000
CC(C)c1nc(-c2ccc3c(c2)[C@@]2(COC(N)=N2)c2cc(OCC(C)(C)C)ccc2O3)cs1 [compound 832] | 100 to 1000 | 1000 to 5000
CC(=O)c1sccc1-c1ccc2c(c1)[C@@]1(COC(N)=N1)c1cc(OCC(C)(C)C)ccc1O2 [compound 835] | 1000 to 5000 | > 5000
CC(=O)c1cc(-c2ccc3c(c2)[C@@]2(COC(N)=N2)c2cc(OCC(C)(C)C)ccc2O3)cs1 [compound 836] | 1000 to 5000 | 1000 to 5000
Cc1nc(C)c(-c2ccc3c(c2)[C@@]2(COC(N)=N2)c2cc(OCC(C)(C)C)ccc2O3)s1 [compound 837] | 100 to 1000 | > 5000
CN(C)c1ncc(-c2ccc3c(c2)[C@@]2(COC(N)=N2)c2cc(OCC(C)(C)C)ccc2O3)cn1 [compound 838] | > 5000 | > 5000
CC(C)CCCOc1nccc2c1[C@]1(COC(N)=N1)c1cc(-c3cccnc3)ccc1O2 [compound 842] | 100 to 1000 | 100 to 1000
CC(C)CCCOc1nccc2c1[C@@]1(COC(N)=N1)c1cc(-c3cccnc3)ccc1O2 [compound 843] | > 5000 | > 5000
NC1=N[C@@]2(CO1)c1ccccc1Oc1ccc(-c3cncnc3)cc12 [compound 844] | 100 to 1000 | 100 to 1000
CC(C)(C)C#Cc1ccc2c(c1)[C@]1(COC(N)=N1)c1cc(Cl)ncc1O2 [compound 846] | 1000 to 5000 | > 5000
CC(C)(C)C#Cc1ccc2c(c1)[C@]1(COC(N)=N1)c1cc(C#CC(C)(C)C)ncc1O2 [compound 847] | 100 to 1000 | 1000 to 5000
COC(=O)c1ccc2c(c1)[C@@]1(COC(N)=N1)c1cc(OCC(C)(C)C)ccc1O2 [compound 850] | 100 to 1000 | 1000 to 5000
NC1=NC2(CO1)c1cnc(Cl)cc1Oc1ccc(-c3cncnc3)cc12 (centres unmarked) [compound 852] | 1000 to 5000 | > 5000
NC1=N[C@@]2(CO1)c1cc(Br)ccc1Oc1ccc(Cl)nc12 [compound 855] | > 5000 | > 5000
NC1=N[C@]2(CO1)c1cc(Br)ccc1Oc1ccc(Cl)nc12 [compound 856] | > 5000 | > 5000
CC(C)(C)OC(=O)Cc1ccc2c(c1)[C@@]1(COC(N)=N1)c1cc(Br)ccc1O2 [compound 858] | > 5000 | > 5000

SMILES | IC50 (BACE1 [1]) [nM] | IC50 (BACE1 [2]) [nM]
CC(C)(C)COc1ccc2c(c1)[C@]1(COC(N)=N1)c1cc(C(=O)O)ccc1O2 [compound 861] | 1000 to 5000 | > 5000
CC(=O)COc1ccc2c(c1)[C@@]1(COC(N)=N1)c1cc(-c3cccnc3)cnc1O2 [compound 864] | 100 to 1000 | 100 to 1000
CC(=O)COc1ccc2c(c1)[C@]1(COC(N)=N1)c1cc(-c3cccnc3)cnc1O2 [compound 865] | 1000 to 5000 | 1000 to 5000
CC(C)(C)COc1ccc2c(c1)[C@]1(COC(N)=N1)c1cc(-c3ccc(F)nc3)cnc1O2 [compound 869] | 100 to 1000 | 1000 to 5000
NC1=N[C@@]2(CO1)c1cc(C(=O)N3CCCC3)ccc1Oc1ccc(-c3cccnc3)cc12 [compound 872] | 100 to 1000 | 100 to 1000
CC(C)(C)COc1ccc2c(c1)[C@]1(COC(N)=N1)c1cc(C(=O)N3CCCCC3)ccc1O2 [compound 873] | 100 to 1000 | 100 to 1000
CC(C)(C)COc1ccc2c(c1)[C@]1(COC(N)=N1)c1cc(C(=O)NC3CCCC3)ccc1O2 [compound 874] | 100 to 1000 | 1000 to 5000
NC1=N[C@@]2(CO1)c1cc(Br)ccc1Oc1ccc(-c3cccnc3)cc12 [compound 876] | 100 to 1000 | 1000 to 5000
COC(=O)CCc1ccc2c(c1)[C@]1(COC(N)=N1)c1cc(-c3cncnc3)ccc1O2 [compound 877] | 100 to 1000 | 100 to 1000
CC(C)(C)COc1ccc2c(c1)[C@]1(COC(N)=N1)c1cc(-c3cncnc3O)ccc1O2 [compound 884] | 100 to 1000 | 1000 to 5000
CC(C)(C)COc1ccc2c(c1)[C@]1(COC(N)=N1)c1cc(-c3ncccn3)ccc1O2 [compound 885] | 100 to 1000 | 1000 to 5000
CN(C)CCOc1ccc2c(c1)[C@]1(COC(N)=N1)c1cc(-c3cccnc3)ccc1O2 [compound 886] | 100 to 1000 | < 100
NC1=N[C@]2(CO1)c1cc(-c3ccc(O)cc3)ccc1Oc1ccc(-c3cncnc3)cc12 [compound 890] | < 100 | 100 to 1000
NC1=N[C@@]2(CO1)c1cc(-c3cncnc3)ccc1Oc1ccc(-c3cccc(O)c3)cc12 [compound 891] | < 100 | 100 to 1000
COc1ccc(-c2ccc3c(c2)[C@]2(COC(N)=N2)c2cc(-c4cncnc4)ccc2O3)cc1 [compound 892] | < 100 | < 100
COc1cccc(-c2ccc3c(c2)[C@]2(COC(N)=N2)c2cc(-c4cncnc4)ccc2O3)c1 [compound 893] | < 100 | 100 to 1000

Now from value to compound:

IC50 (BACE1 [1]) [nM] | IC50 (BACE1 [2]) [nM] | SMILES
< 100 | < 100 | COc1ccc(-c2ccc3c(c2)[C@]2(COC(N)=N2)c2cc(-c4cncnc4)ccc2O3)cn1 [compound 829]
< 100 | 100 to 1000 | COc1ccc(-c2ccc3c(c2)[C@]2(COC(N)=N2)c2cc(-c4cncnc4)ccc2O3)cc1OC [compound 830]
< 100 | < 100 | NC1=N[C@]2(CO1)c1cc(C3=CCSCC3)ccc1Oc1ccc(-c3cncnc3)cc12 [compound 831]
< 100 | 1000 to 5000 | CC(C)(C)COc1ccc2c(c1)[C@]1(COC(N)=N1)c1cc(-c3ccsc3)ccc1O2 [compound 833]
< 100 | 1000 to 5000 | CC(C)(C)COc1ccc2c(c1)[C@]1(COC(N)=N1)c1cc(-c3cccs3)ccc1O2 [compound 834]
< 100 | 1000 to 5000 | NC1=N[C@@]2(CO1)c1cc(-c3cncnc3)ccc1Oc1ccc(-c3cccc(OC(F)(F)F)c3)cc12 [compound 839]
< 100 | 100 to 1000 | NC1=N[C@]2(CO1)c1cc(-c3ccc(OC(F)(F)F)cc3)ccc1Oc1ccc(-c3cncnc3)cc12 [compound 840]
< 100 | 100 to 1000 | CC1(C)Cc2cc(-c3ccc4c(c3)[C@]3(COC(N)=N3)c3cc(-c5cncnc5)ccc3O4)ccc2O1 [compound 841]
< 100 | < 100 | CC(C)(C)C#Cc1cc2c(cn1)Oc1ccc(-c3cccnc3)cc1[C@@]21COC(N)=N1 [compound 845]
< 100 | < 100 | NC1=N[C@@]2(CO1)c1cc(-c3cccnc3)ccc1Oc1cnc(C3=CCCCC3)cc12 [compound 848]
< 100 | < 100 | NC1=N[C@@]2(CO1)c1cc(-c3cccnc3)ccc1Oc1cnc(C3=CCOCC3)cc12 [compound 849]
< 100 | 100 to 1000 | CC(C)Oc1ccc(-c2cc3c(cn2)Oc2ccc(-c4cccnc4)cc2[C@@]32COC(N)=N2)cc1 [compound 851]
< 100 | < 100 | CC(C)(C)C#Cc1ccc2c(n1)[C@]1(COC(N)=N1)c1cc(-c3cccnc3)ccc1O2 [compound 854]
< 100 | 100 to 1000 | CC(=O)/C=C/c1ccc2c(c1)[C@]1(COC(N)=N1)c1cc(-c3cncnc3)ccc1O2 [compound 857]
< 100 | < 100 | NC1=N[C@]2(CO1)c1cc(CCC3(O)CCC3)ccc1Oc1ccc(-c3cccnc3)cc12 [compound 859]
< 100 | 100 to 1000 | NC1=N[C@@]2(CO1)c1cc(-c3cccnc3)ccc1Oc1ccc(N3CCCC3=O)cc12 [compound 863]
< 100 | 100 to 1000 | CC(C)C(O)COc1ccc2c(c1)[C@]1(COC(N)=N1)c1cc(-c3cccnc3)ccc1O2 (some centres unmarked) [compound 866]
< 100 | < 100 | CC(C)C(C)(O)COc1ccc2c(c1)[C@]1(COC(N)=N1)c1cc(-c3cccnc3)ccc1O2 (some centres unmarked) [compound 867]
< 100 | < 100 | CC(C)(C)COc1ccc2c(c1)[C@@]1(COC(N)=N1)c1cc(-c3ccc(F)nc3)cnc1O2 [compound 868]
< 100 | < 100 | CC(C)(C)COc1ccc2c(c1)[C@@]1(COC(N)=N1)c1cc(-c3cccnc3F)cnc1O2 [compound 870]
< 100 | 100 to 1000 | CC(C)(C)COc1ccc2c(c1)[C@]1(COC(N)=N1)c1cc(-c3cccnc3F)cnc1O2 [compound 871]
< 100 | 100 to 1000 | COC(=O)c1ccc2c(c1)[C@@]1(COC(N)=N1)c1cc(OCC(C)(C)C)ccc1O2 [compound 875]
< 100 | < 100 | Cc1ccc(-c2ccc3c(c2)[C@]2(COC(N)=N2)c2cc(-c4cncnc4)ccc2O3)o1 [compound 880]
< 100 | 100 to 1000 | CC(C)(C)COc1ccc2c(c1)[C@]1(COC(N)=N1)c1cc(-c3cnc(Cl)nc3)ccc1O2 [compound 881]
< 100 | 1000 to 5000 | CC(C)(C)COc1ccc2c(c1)[C@]1(COC(N)=N1)c1cc(-c3ccc(C#N)nc3)ccc1O2 [compound 882]
< 100 | 100 to 1000 | CC(C)(C)COc1ccc2c(c1)[C@]1(COC(N)=N1)c1cc(-c3cnccc3Cl)ccc1O2 [compound 883]
< 100 | 100 to 1000 | CC(C)(C)COc1ccc2c(c1)[C@]1(COC(N)=N1)c1cc(-c3ccc(Cl)nc3)ccc1O2 [compound 887]
< 100 | < 100 | CC(=O)c1ccc(-c2ccc3c(c2)[C@]2(COC(N)=N2)c2cc(-c4cncnc4)ccc2O3)cc1 [compound 888]
< 100 | < 100 | CC(=O)c1cccc(-c2ccc3c(c2)[C@]2(COC(N)=N2)c2cc(-c4cncnc4)ccc2O3)c1 [compound 889]
